Source: patent US11083723B2, “Use of roluperidone to treat negative symptoms and disorders, increase neuroplasticity, and promote neuroprotection” (Minerva Neurosciences, Inc., priority 2018, dated 2021)
Counter-ions that a name gives are not always drawn.

Tests used:
histaminergic receptors = assay: Receptor affinity, histaminergic; format: binding
[1] = target: alpha1-adrenergic receptors; assay: Molecular binding profile, alpha1-adrenergic
dopaminergic receptors = assay: Receptor affinity, dopaminergic; format: binding
[2] = tested on: BDNF release by primary rat astrocytes; assay: BDNF release by primary rat astrocytes, in situ ELISA; format: cell-based; conditions: 5 days incubation
Description: At confluency, astrocytes were plated in 96-well Nunc MaxiSorp surface polystyrene flat-bottom immunoplate precoated with poly-D-lysine during 30 min. and an anti-BDNF monoclonal antibody overnight at 4° C. at a density of 30,000 cells/well. […] At the end of drug treatment, cells were carefully washed with TBST (20 mM Tris-HCl (pH 7.6), 150 mM NaCl, and 0.05% (vol/vol) Tween 20). The plate was then incubated with the polyclonal anti-human BDNF antibody overnight and BDNF quantified. Experimental Protocol-In Situ ELISA on Primary Astrocytes Rat Primary Culture of Astrocytes Rat mixed glial cells were cultured as described by McCarthy et al. Primary rat glial cells were prepared from the cortical of newborn Wistar rats (1 day). […] Medium was changed 3 times per week. At confluency, astrocytes were plated in 96-well Nunc MaxiSorp surface polystyrene flat-bottom immunoplate precoated with poly-D-lysine during 30 min (Sigma, Ref: […], batch: SLBS8705) and an anti-BDNF monoclonal antibody overnight at 4° C. at a density of 30,000 cells/well. (Balkowiec and Katz “Cellular Mechanisms Regulating Activity-Dependent Release of Native Brain-Derived Neurotrophic Factor from Hippocampal Neurons” J. […] At the end of drug treatment, cells were carefully washed with TBST (20 mM Tris-HCl (pH 7.6), 150 mM NaCl, and 0.05% (vol/vol) Tween 20). The plate was then incubated with the polyclonal anti-human BDNF antibody overnight. The amount of specifically bound polyclonal antibody, which when exposed to chromogenic substrate (TMB reagent; Promega), changes color in proportion to the amount of BDNF present in the sample. The color intensity was quantified by measuring the absorbance at 450 nm. BDNF standards, ranging in concentration from 0 to 500 pg/mL were added in parallel wells in the same medium than hippocampal neurons.

5-HT2A receptors = 5-HT2A receptors (Homo sapiens, UniProt P28223); assay: Molecular binding profile, 5-HT2A
5-HT2A receptors, sequence (P28223 whole entry): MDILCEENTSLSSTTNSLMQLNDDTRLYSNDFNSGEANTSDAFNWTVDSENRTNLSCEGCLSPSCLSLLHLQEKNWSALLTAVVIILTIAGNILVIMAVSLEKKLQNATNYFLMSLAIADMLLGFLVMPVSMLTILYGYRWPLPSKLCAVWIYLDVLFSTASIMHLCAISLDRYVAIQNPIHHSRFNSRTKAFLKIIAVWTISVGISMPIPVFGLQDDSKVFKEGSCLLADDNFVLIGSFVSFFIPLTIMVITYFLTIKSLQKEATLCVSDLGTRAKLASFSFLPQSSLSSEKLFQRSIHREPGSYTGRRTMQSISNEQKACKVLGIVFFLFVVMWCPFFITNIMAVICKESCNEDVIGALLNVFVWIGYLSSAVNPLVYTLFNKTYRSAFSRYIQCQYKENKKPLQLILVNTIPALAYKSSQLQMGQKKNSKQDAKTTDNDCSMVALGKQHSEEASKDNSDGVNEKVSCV

[3] = tested on: BDNF expression by astrocytes; assay: BDNF expression by astrocytes, qPCR; format: cell-based, rat; conditions: for BDNF expression astrocytes, % increase of control conditions: 5 days incubation; for BDNF expression by astrocytes, fold change (Fc) compared to control condition: 5 days
Description: For analysis of BDNF expression by real-time quantitative polymerase chain reaction (qPCR), astrocytes were seeded in 24 well-plates pre-coated with poly-D-lysine. After 1 day of culture, fresh serum free medium containing compounds was added during 5 days at 37° C. At the end of the incubation time total RNA content were extracted and reverse transcription was performed. Expression levels were calculated using the ΔCt method where the expression level of the mRNA of interest is given by 2-ΔCT with ΔCT=CT target mRNA−CT reference mRNA (Gapdh), in the same sample.
Rat Primary Culture of Astrocytes—rat mixed glial cells were cultured as described by McCarthy et al., 1980. Primary rat glial cells were prepared from the cortical of newborn Wistar rats (1 day). Briefly, meninges and blood vessels of the mice cortex were removed and placed in ice-cold medium of Leibovitz (L15; PanBiotech, ref P04-27055, batch 4511117) containing 2% of Penicillin-Streptomycin (PS; PanBiotech, ref P06-07100, batch 2110917) and 1% of bovine serum albumin (BSA; PanBiotech, ref P06-1391100, batch H171006). Tissues were dissociated with 0.25% trypsin-EDTA (PanBiotech, ref P10-023100, batch 8970318) at 37° C. for 10 min. Cells were then submitted to a supplementary incubation of 15 min at 37° C. in presence of deoxyribonuclease I (0.1 mg/ml Panbiotech, ref: P60-37780100, batch: H170706). Cells were then pelleted (5 min at 1200 rpm) and trypsinization was stopped by adding DMEM (Panbiotech, Ref P04-03600, Batch 5181217) supplemented with 10% FCS (Fischer, Ref 10270106, batch 42G2068K), 1 mM of Na/pyruvate (PanBiotech, ref: P04-43100, batch: 3470914) and 2% PS. Cells suspension was mechanically dissociated and filtered through 40 μm diameter nylon meshes (BD Falcon, Ref: 352340). The cells were collected by centrifugation at 1200 rpm/min for 10 min, re-suspended in culture medium and then plated in culture flasks (Dutscher, ref: 690175). Cells were seeded at a density of 1.25×10^5 cells/cm^2 and cultured in 5% CO2 at 37° C. Medium was changed three times per week.
Analysis of BDNF expression by real-time quantitative polymerase chain reaction (PCR): astrocytes were seeded in 24 well-plates pre-coated with poly-D-lysine (Sigma, ref P7886, batch: SLBQ9797V). After 1 day of culture, fresh serum free medium containing compounds was added during 5 days at 37° C. At the end of the incubation time, medium was removed and total RNA content were extracted using kit nucleo spin RNS XS (Macherey Nagel; 20 μL/well). 6 wells/condition were done. RNA concentration was determined using a Nanodrop 2000 spectrophotometer (Life Technologies ThermoFisher Scientific, Villebon sur Yvette, France).
Reverse transcription was performed on 500 ng of RNA using the high capacity RNA-to-cDNA mix (Applied Biotechnologies). qPCR was performed on 12.5 ng of cDNA using the following primers, purchased from Applied Biotechnology.
For qPCR reactions, the kit TaqMan™ Fast Universal PCR Master Mix (2×) was used. The following volumes were used: mix: 10 uL, enzyme: 4 uL, oligo: 1 uL each, cDNA: 5 uL (12,5 ng). For the comparisons between various compounds and concentrations, expression levels were calculated using the ΔCt method where the expression level of the mRNA of interest is given by 2-ΔCT with ΔCT=CT target mRNA−CT reference mRNA (Gapdh), in the same sample. For the cultures treated with GA or the unknown compound, relative expression levels were determined according to the ΔΔCt method where the expression level of the mRNA of interest is given by 2-ΔΔCT where ΔΔCT=ΔCt for treated cultures−ΔCt for untreated cultures.

muscarinic receptors = assay: Receptor affinity, muscarinic; format: binding

`O=C(CN1CCC(CN2Cc3ccccc3C2=O)CC1)c1ccc(F)cc1` [Compound (I), 1H-Isoindol-1-one, 2-[[1-[2-(4-Fluorophenyl)-2-oxoethyl]-4-piperidinyl]methyl]-2,3-dihydro-, hydrochloride, hydrate (1:1:2)] was tested, and the “affinity for histaminergic receptors” value (histaminergic receptors) was “no affinity”, the Ki [1] was 14.4 nM and the “affinity for dopaminergic receptors” value (dopaminergic receptors) was “no affinity”. For the same compound, the “BDNF release astrocytes, % increase of control conditions” value (“BDNF release astrocytes, % increase” below) ([2]; 3 nM) was 6.8%, the “BDNF release astrocytes, % increase” value ([2]; 10 nM) was 16.2% and the “BDNF release astrocytes, % increase” value ([2]; 30 nM) was 17.1%. The “BDNF release astrocytes, % increase” value ([2]; 100 nM) was 18.9%, the “BDNF release astrocytes, % increase” value ([2]; 300 nM) was 29.5% and the “BDNF release astrocytes, % increase” value ([2]; 1 μM) was 16.9%. For the same compound, the Ki (5-HT2A receptors) was 7.5 nM, the “BDNF expression astrocytes, % increase of control conditions” value (from here on “BDNF expression astrocytes, % increase”) ([3]; 0.3 nM) was 26% and the “BDNF expression astrocytes, % increase” value ([3]; 1 nM) was 55%. For the same compound, the “BDNF expression by astrocytes, fold change (Fc) compared to control condition” value ([3]; 1 nM, p<0.05) was 1.55, the “BDNF expression astrocytes, % increase” value ([3]; 3 nM) was 81% and the “BDNF expression by astrocytes, fold change (Fc) compared to control condition” value ([3]; 3 nM, p<0.001) was 1.81. The “BDNF expression astrocytes, % increase” value ([3]; 10 nM) was 71%, the “BDNF expression by astrocytes, fold change (Fc) compared to control condition” value ([3]; 10 nM, p<0.01) was 1.71 and the “BDNF expression astrocytes, % increase” value ([3]; 30 nM) was 31%. For the same compound, the “BDNF expression astrocytes, % increase” value ([3]; 100 nM) was 5% and the “affinity for muscarinic receptors” value (muscarinic receptors) was “no affinity”.
